In patent US20230113944A1, “COMPOSITIONS AND METHODS FOR THE TREATMENT OF NEURODEGENERATIVE DISEASES” (priority 2020, published 2023):
Several values for one entry are separate records, joined by “and”; a condition that tells them apart may be missing. Equal entries are not always repeated. Entries after “also recorded” stand apart in the source; their conditions may differ. Where two headings read alike, the source gives them in different places.

Key:
human nSMase2 = target: T1, human nSMase2 (Homo sapiens, UniProt Q9NY59); experiment: biochemical; type: biochemical; conditions: IC50 nSMase2
T1 construct: expressed in transfected cells; host or cells: HEK293T
T1 sequence (Q9NY59 1-655): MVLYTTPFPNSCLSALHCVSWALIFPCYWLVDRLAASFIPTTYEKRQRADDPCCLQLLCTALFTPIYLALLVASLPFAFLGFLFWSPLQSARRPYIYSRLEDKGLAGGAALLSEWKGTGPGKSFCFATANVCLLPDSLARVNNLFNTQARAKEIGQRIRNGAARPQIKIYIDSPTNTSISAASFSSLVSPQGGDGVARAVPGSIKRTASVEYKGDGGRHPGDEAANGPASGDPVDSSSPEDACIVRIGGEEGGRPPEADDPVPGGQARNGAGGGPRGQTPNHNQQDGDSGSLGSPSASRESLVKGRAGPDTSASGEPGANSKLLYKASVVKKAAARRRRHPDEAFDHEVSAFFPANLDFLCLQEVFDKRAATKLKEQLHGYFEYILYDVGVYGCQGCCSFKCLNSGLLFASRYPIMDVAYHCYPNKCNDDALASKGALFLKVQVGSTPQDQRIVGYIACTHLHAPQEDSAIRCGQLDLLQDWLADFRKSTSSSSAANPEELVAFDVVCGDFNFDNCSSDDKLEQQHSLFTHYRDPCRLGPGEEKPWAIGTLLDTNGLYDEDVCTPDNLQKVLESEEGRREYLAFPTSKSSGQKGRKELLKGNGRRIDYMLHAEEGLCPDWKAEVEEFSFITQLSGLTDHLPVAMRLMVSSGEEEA
Experimental: To evaluate nSMase2 inhibitory activity of tested compounds, cell lysates from HEK293T cells over-expressing human nSMase2 were used as the source of the nSMase2 enzyme. The Amplex Red Sphingomyelinase activity assay was performed according to previously a described protocol^1. Confluent cells were washed with PBS and harvested with lysis buffer [100 mM Tris-HCl pH 7.5, 100 mM sucrose, 100 μM PMSF, 1× protease inhibitor cocktail] using a cell scraper, and then sonicated 3 times on ice for 10 sec and centrifuged at 10,000×g for 10 min at 4° C. to remove remaining cell debris. An initial screening of a compound library was performed using 50 μM compound concentrations. In secondary testing, selected compounds were analyzed at multiple compound concentrations and plotted as a percentage of DMSO control; dose-response curves were generated to determine IC50s using GraphPad Prism software (GraphPad Software, La Jolla Calif.). […] Activity of the enzyme in the presence of the different concentrations of the inhibitors was plotted against substrate concentration and the maximal rate of the enzymatic reaction (Vmax) and Michaelis constant were calculated using GraphPad Prism.

Human AChE = target: T2, Human AChE (Homo sapiens, UniProt P22303); experiment: biochemical; conditions: IC50 AChE
T2 construct: purchased Sigma
Experimental: This acetylcholinesterase (AChE) assay is based on an Amplex Red assay kit (Thermo Fisher A12217). Human AChE (Sigma) was used. Briefly, 5 μL of compounds at the desired concentration were loaded into wells of a 384-well plate. Then, 5 μl of human AChE (30 mU/mL) was loaded into each well, followed by the addition of 10 μL of the working solution which contains 400 μM Amplex Red reagent, 2 U/mL HRP, 0.2 U/mL choline oxidase, and 100 μM acetylcholine. The reaction was monitored for 60 minutes and read at 530/590 nm. AChE IC50 was determined by plotting AChE activity as a percentage of DMSO control using GraphPad Prism software.

[1] = Parallel artificial membrane permeability (IAM column) prediction of CNS permeability; type: in vitro ADME
Experimental: To predict the potential for brain permeability, a Regis Technologies analytical column connected to an Agilent HPLC system (Infinity 1260 quaternary pump and multiple wavelength detector; 1200 autosampler) was used. An IAM.PC.DD column was (4.6 mm i.d.×10 cm, particle size 5 μm; pore size 300 Å) conditioned with 20 column volumes of mobile phase or until a stable line was achieved. A mobile phase with a consistent flow rate of 1 mL/min was used comprising 100 mM Na2PO4 (solvent A) and acetonitrile (solvent B); compounds were eluted using a gradient (min/% B: 0/30, 10/60, 11/30, 15/30). Detector settings were 220, 250 and 280 nm and acquisition time was 15 min. The autosampler injected 10 μL of compound at 2 mM final, diluted from 10 mM in DMSO in 70:30 (water:acetonitrile). After elution, compound retention and void volume times were obtained from the chromatogram. The IAM capacity factor: (KIAM) was calculated using the equation: […]
where tr is the retention time of a compound and t0 is the void volume time of the column. To predict CNS permeability, we used the correlation described by the formula below.

[2] = target: human serum albumin (HSA) (Homo sapiens, UniProt P02768); experiment: Binding to human serum albumin (HSA); conditions: for fraction unbound: human, human serum albumin
[3] = test system: HEK293T Tau RD P301S FRET biosensor (tau biosensor) cells; experiment: EV-mediated tau seed transfer (EMT) assay; type: cell-based; conditions: 20 μM
[4] = test system: Tau P301S (PS19 line) tauopathy mouse model; experiment: Rapid in vivo assay: IL1β-induced brain EV release; parameters: species or system mice
[5] = test system: HEK293T Tau RD P301S FRET biosensor (tau biosensor) cells; experiment: Donor plus Recipient (D+R) tau propagation assay; type: cell-based; conditions: 20 μM, 48 hrs
Experimental: HEK293T Tau RD P301S FRET biosensor (tau biosensor) cells were grown in Dulbecco's Modified Eagle's medium (DMEM) with high glucose, 10% FBS, and 1% Penicillin-streptomycin at 37° C./5% CO2. The lead inhibitors were tested in functional tau propagation “D+R” (Donors plus Recipients) and EMT (EV-mediated transfer) assays using the tau biosensors. Briefly, tau aggregation in donor cells (D) was induced by transfection of tau biosensor cells with human AD brain derived synaptosomal extracts (35 μg of synaptosomal fraction for 5 million cells in one 10 cm dish); control cells were treated with corresponding amount of transfection reagent lipofectamine 2000. After 24 hr incubation, the cells were trypsinized and plated together with DID-labeled recipient cells (R) in a 1:1 ratio in 96-well plates (15,000 of each cell type per well) for D+R assay or 1.5 million of donor cells per well in 6-well plates for EMT assay. Tested compounds or a corresponding amount of DMSO (0.2%) was added to the cell culture medium, DMEM, which contained 10% of exosome-depleted FBS (ThermoFisher, A2720803). Four technical replicates were used for each experimental condition. The inhibitors were tested at 20 μM concentration. […] Tau seed transfer from donor to recipient cells results in FRET signal generation in the DID-positive recipient cells, which was measured by flow cytometry. Integrated FRET density was calculated in the top 30% of DID-positive cell based on DID signal intensity.
An Attune NxT Flow Cytometer (Invitrogen) equipped with an autosampler and FRET-compatible laser lines and filter sets was used for FRET signal detection. The FRET (CFP/YFP) signal was excited by a 405 nm laser for CFP excitation and detected in the YFP image detection channel. Flow cytometry data was analyzed using FCS Express version 5 software (DeNovo Software California, USA). Integrated FRET density was calculated as a product of percentage FRET positive cells and median of fluorescent intensity of the FRET positive cells as previously established.

[6] = Brain pharmacokinetic analysis after SQ dosing
Experimental: Pharmacokinetic (PK) analysis on the leads 8 and 11 to determine brain permeability using wild type mice was performed. The compounds were subcutaneously (SQ) injected at a dose of 20 mg per kg of body weight (mpk). Brain and plasma samples were collected 1, 2, and 4 hours after dosing.

[7] = test system: HEK293T Tau RD P301S FRET biosensor (tau biosensor) cells; experiment: EV-mediated tau seed transfer (EMT) assay; type: cell-based
Experimental: HEK293T Tau RD P301S FRET biosensor (tau biosensor) cells were grown in Dulbecco's Modified Eagle's medium (DMEM) with high glucose, 10% FBS, and 1% Penicillin-streptomycin at 37° C./5% CO2. The lead inhibitors were tested in functional tau propagation “D+R” (Donors plus Recipients) and EMT (EV-mediated transfer) assays using the tau biosensors. Briefly, tau aggregation in donor cells (D) was induced by transfection of tau biosensor cells with human AD brain derived synaptosomal extracts (35 μg of synaptosomal fraction for 5 million cells in one 10 cm dish); control cells were treated with corresponding amount of transfection reagent lipofectamine 2000. After 24 hr incubation, the cells were trypsinized and plated together with DID-labeled recipient cells (R) in a 1:1 ratio in 96-well plates (15,000 of each cell type per well) for D+R assay or 1.5 million of donor cells per well in 6-well plates for EMT assay. Tested compounds or a corresponding amount of DMSO (0.2%) was added to the cell culture medium, DMEM, which contained 10% of exosome-depleted FBS (ThermoFisher, A2720803). Four technical replicates were used for each experimental condition. The inhibitors were tested at 20 μM concentration. In 48 hours 50 μL of culture medium per well were collected for cell viability test (Cytotox 96 non-radioactive cytotoxicity assay, Promega Corp., Madison, Wis.). The cells in D+R assay were harvested at the 48 hr time point and fixed with 2% paraformaldehyde for flow cytometry analysis according to published protocol. Tau seed transfer from donor to recipient cells results in FRET signal generation in the DID-positive recipient cells, which was measured by flow cytometry. Integrated FRET density was calculated in the top 30% of DID-positive cell based on DID signal intensity.
For the EMT assay, cell culture medium from donor cells growing for 48 hours with the compounds at concentrations of 20 μM or a corresponding amount of DMSO (0.2%), was collected and EVs were purified using the ExoQuick-TC kit (SBI biosciences) according to the manufacturer's instructions. Naïve recipient cells were plated in 96 well plates at a density of 20,000 cells per well in exosome-free medium and transfected with donor cell-derived exosomes at 12 hrs. The recipient cells were harvested 60 hours after transfection and FRET signals were analyzed using flow cytometry.
An Attune NxT Flow Cytometer (Invitrogen) equipped with an autosampler and FRET-compatible laser lines and filter sets was used for FRET signal detection. […] Flow cytometry data was analyzed using FCS Express version 5 software (DeNovo Software California, USA). Integrated FRET density was calculated as a product of percentage FRET positive cells and median of fluorescent intensity of the FRET positive cells as previously established.

T2 sequence (P22303 32-614): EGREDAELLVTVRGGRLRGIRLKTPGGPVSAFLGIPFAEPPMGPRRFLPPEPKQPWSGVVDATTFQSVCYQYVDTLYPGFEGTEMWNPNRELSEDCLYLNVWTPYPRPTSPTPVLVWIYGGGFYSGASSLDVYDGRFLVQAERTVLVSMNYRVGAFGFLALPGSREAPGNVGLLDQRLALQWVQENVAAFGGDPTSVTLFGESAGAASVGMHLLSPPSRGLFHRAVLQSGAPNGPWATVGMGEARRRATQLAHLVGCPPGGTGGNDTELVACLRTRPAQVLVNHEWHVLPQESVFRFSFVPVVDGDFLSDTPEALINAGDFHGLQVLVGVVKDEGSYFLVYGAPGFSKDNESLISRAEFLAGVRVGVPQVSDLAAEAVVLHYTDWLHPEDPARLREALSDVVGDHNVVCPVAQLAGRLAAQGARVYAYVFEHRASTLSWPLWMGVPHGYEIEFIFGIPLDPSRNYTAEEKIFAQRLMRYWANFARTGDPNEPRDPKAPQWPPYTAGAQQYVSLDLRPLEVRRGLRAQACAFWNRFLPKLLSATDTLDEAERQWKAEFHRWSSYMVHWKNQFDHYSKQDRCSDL
human serum albumin (HSA), sequence (P02768 25-609): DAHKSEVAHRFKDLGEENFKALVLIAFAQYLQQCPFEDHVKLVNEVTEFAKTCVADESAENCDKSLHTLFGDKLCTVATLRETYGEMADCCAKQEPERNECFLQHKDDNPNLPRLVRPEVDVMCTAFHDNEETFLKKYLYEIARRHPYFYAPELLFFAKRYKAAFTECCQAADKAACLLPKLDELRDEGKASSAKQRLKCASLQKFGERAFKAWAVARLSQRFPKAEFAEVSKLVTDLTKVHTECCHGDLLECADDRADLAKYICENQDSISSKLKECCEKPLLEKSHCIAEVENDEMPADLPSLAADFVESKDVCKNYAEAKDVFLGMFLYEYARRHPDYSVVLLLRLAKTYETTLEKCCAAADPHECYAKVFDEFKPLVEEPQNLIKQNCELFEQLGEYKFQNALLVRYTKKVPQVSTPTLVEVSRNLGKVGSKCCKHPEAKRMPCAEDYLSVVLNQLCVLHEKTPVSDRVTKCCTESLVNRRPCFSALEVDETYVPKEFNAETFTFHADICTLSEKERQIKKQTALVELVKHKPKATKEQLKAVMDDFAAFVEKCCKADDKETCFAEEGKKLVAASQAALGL

Structure (SMILES)	IC50 (human nSMase2)	IC50 (Human AChE)	CNS perm (PAMPA) [1]	fraction unbound [2]	degree of binding to human serum albumin (HSA) [2]	further results
Cc1cc(C)cc(NC(=O)Oc2ccc3c(c2)[C@]2(C)CCO[C@@H]2N3C)c1 [Compound 6]	3600 nM	200 nM	3.1	0.04	–	–
COc1cc(NC(=O)Oc2ccc3c(c2)[C@]2(C)CCO[C@@H]2N3C)cc(OC)c1 [Compound 7]	2000 nM	300 nM	1.8	0.09	–	–
CN1c2ccc(OC(=O)Nc3ccncc3)cc2[C@]2(C)CCO[C@H]12 [Compound 8]	–	6000 nM	–	0.28	low degree of binding	EV size distribution of donor-derived EVs (TRPS) [3]: did not affect; concentrations of exosomal-type small EVs from donor cells [3]: decreased; levels of exosomal markers CD63, CD81, and syntenin-1 in donor EVs ([3]; vs DMSO control): reduced; IL1β-induced tau release by exosomes ([4]; 20 mg/kg SQ): less effective; IL1β-induced brain EV / exosomal release (small EV concentration, TRPS) ([4]; mouse, in vivo, 20 mg/kg): didn't induce the same level of suppression; tau seed transfer from donor to recipient cells, D+R assay [5]: suppress tau propagation; also recorded: significantly suppresses; brain penetration (compound levels in brain tissue, LC-MS/MS) ([6]; mice, 20 mg/kg SQ): penetrated the brain; concentration at 1 h ([6]; mouse, in vivo, 20 mg/kg): 61 ng/g and ~200 nM; time of peak brain levels after SQ dosing ([6]; wild type mice, 20 mg/kg SQ): around one; CNS perm (PAMPA) ([1]; PAMPA, 2 mM): 1.9; tau seed transfer from donor to recipient cells, EMT assay ([7]; 20 μM, donor cells 48 hrs): suppress tau propagation; also recorded: significantly suppresses
CC[C@H]1C[C@@]2(C)c3cc(OC(=O)Nc4ccccc4)ccc3N(C)[C@H]2O1 [Compound 9]	> 5000 nM	2500 nM	3	0.07	–	–
CN1c2ccc(OC(=O)Nc3ccccn3)cc2[C@]2(C)CCO[C@H]12 [Compound 12]	800 nM	> 5000 nM	1.9	0.28	low degree of binding	–
CN1c2ccc(OC(=O)Nc3ccncc3F)cc2[C@]2(C)CCO[C@H]12 [Compound 13]	600 nM	> 5000 nM	–	0.35	low degree of binding	CNS perm (PAMPA) ([1]; PAMPA, 2 mM): 1.3
CN1c2ccc(OC(=O)Nc3cncc(F)c3)cc2[C@]2(C)CCO[C@H]12 [Compound 14]	900 nM	> 5000 nM	2	0.21	–	–
CCN(C)C(=O)Oc1cccc([C@H](C)N(C)C)c1 [rivastigmine, reference compound]	–	–	–	–	–	EV-mediated transfer from donor to recipient cells ([7]; preliminary experiments, data not shown): may partially suppress
